# According to patent US5180711A, “Combined treatment with GnRH antagonist and GnRH to control gonadotropin levels in mammals” (Applied Research Systems ARS Holding N.V., priority 1990, dated 1993):
# Where a SMILES comes first, the peptide text is derived from it. [ ]: non-standard residue; d: D form. The star is where a group is joined. dPhe(4-Cl) = N[C@H](Cc1ccc(Cl)cc1)C(=O)O; d2Nal = N[C@H](Cc1ccc2ccccc2c1)C(=O)O; Lys(iPr) = CC(C)NCCCC[C@H](N)C(=O)O; d3Pal = N[C@H](Cc1cccnc1)C(=O)O; Nicotinoyl = O=C(c1cccnc1)*
# Experiments:
# [1] = Antide concentrations in daily blood samples (Example 2); assay type: in vivo, cynomolgus monkeys; details: regimen A: four daily injections of 10 mg/kg sc; test period >40 days
# Method: (§1) Normally cycling cynomolgus monkeys were studied in one of two regimens. Regimen A comprised a series of initial large loading doses of Antide (10 mg/kg, sc), with no further Antide administration. […] In each regimen GnRH replacement was initiated 4 days after the first Antide injection at a rate of 5 μg/pulse, with one 1 min pulse/hour. The amplitude was subsequently raised to 10 μg/pulse after approximately 21 days. Daily blood samples were drawn for later determination of estradiol, progesterone and Antide concentrations.
# [2] = tested on: endogenous gonadotropin secretion (LH, FSH); test: Inhibition of endogenous gonadotropin secretion by Antide and response to pulsatile GnRH replacement in ovariectomized monkeys (Example 1); assay type: in vivo, cynomolgus monkeys; details: Antide-suppressed monkeys; GnRH 5 μg/pulse, 1 pulse/hour, from day 17; day after initiation
# Method: Three long-term ovariectomized cynomolgus monkeys fitted with indwelling jugular vein canulae were utilized for this study. Daily blood samples were drawn under ketamine-induced anesthesia (10 mg/kg, I.M.), for 90 days. On study days 11-16 Antide (3 mg/kg, in propylene/glycol:water, 1:1) was administered via subcutaneous injection. GnRH replacement therapy (5 μg/pulse, 1 pulse/hour given over 1 min, via a Pulsamat infusion pump) was initiated on day 17 and continued for one week then withheld for one week, then reinitiated for one week in a 7 day on, 7 day off regimen for a total of four exposures.
# [3] = tested on: ovulation; estradiol and progesterone concentrations; test: Ovulation induction by pulsatile GnRH replacement during Antide suppression of endogenous cycles (Example 2); assay type: in vivo, cynomolgus monkeys
# Method: A second experiment was performed to establish that pulsatile GnRH replacement therapy would induce ovulation in the face of antagonist-induced suppression of endogenous cycles.
# as §1
# [4] = tested on: tonic gonadotropin (FSH/LH) levels; details: ovariectomized monkeys treated with Antide; cited from earlier work
Compound,"concentration of Antide, always remaining above, throughout test period [1]",gonadotropin concentrations during GnRH replacement therapy [2],"E2 response, ovulation and luteal P4 ([3]; regimen A, GnRH restarted at 10 μg/pulse)","E2 response to initial pulsatile GnRH replacement ([3]; regimen B, GnRH 5 μg/pulse)","E2 response, ovulation and luteal P4 ([3]; regimen B, GnRH increased to 10 μg/pulse)",gonadotropin response to a large i.v. bolus of GnRH [4]
"CC(=O)N[C@H](Cc1ccc2ccccc2c1)C(=O)N[C@H](Cc1ccc(Cl)cc1)C(=O)N[C@H](Cc1cccnc1)C(=O)N[C@@H](CO)C(=O)N[C@@H](CCCCNC(=O)c1cccnc1)C(=O)N[C@H](CCCCNC(=O)c1cccnc1)C(=O)N[C@@H](CC(C)C)C(=O)N[C@@H](CCCCNC(C)C)C(=O)N1CCC[C@H]1C(=O)N[C@H](C)C(N)=O [Antide, N--Ac--D--2--Nal--D--pClPhe--D--3---Pal--Ser--NicLys--D--NicLys--Leu--ILys--Pro--D--Ala--NH2] (Ac-[d2Nal][dPhe(4-Cl)][d3Pal]SK(Nicotinoyl)[dK](Nicotinoyl)L[Lys(iPr)]P[dA]-NH2)",above 15 ng/ml,,,,,
"gonadotropin releasing hormone (QHWSYGLRPG; Gonadoliberin-1; UniProt P01148 24-33, looked up) [GnRH]",,greater than 100 ng/ml,rapid and sustained elevation of E2 concentrations culminating in ovulation and normal luteal phase P4 (progesterone) concentrations,elevations of E2 to those characteristic of the late follicular phase,rapid rise in E2 concentrations to normal preovulatory levels culminating in ovulation with subsequent normal luteal P4 production,transient increase in gonadotropin levels which subsequently fell back to the inhibited state
